Measured values reported in ChEMBL document CHEMBL1201862, “PubChem BioAssay data set” (2004).
Calls of active or inactive are those of the source.

Tests used:
BJ [1] = assay: BJ-TERT fibroblast viability loss – cell-based, RAS-independent, luminescence, dose response (AID 1933); format: functional; conditions: Homo sapiens
BJ [2] = assay: BJ-TERT-LT-ST fibroblast viability loss – cell-based, RAS-independent, luminescence, dose response (AID 1935); format: functional; conditions: Homo sapiens;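 note: BJ fibroblasts immortalized with TERT plus LT and ST oncogenes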
BJ [3] = assay: cells; format: functional, cell-based; conditions: Homo sapiens
BJ [4] = assay: growth inhibition of engineered Ras-driven BJ cells – cell-based, alamar blue fluorescence, cherrypicked samples, dose response (AID 2631); format: functional; conditions: Homo sapiens;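 note: confirmatory dose-response assay in RAS-dependent BJ fibroblasts engineered with TERT, LT and ST, with cytotoxicity read by fluorescence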
[5] = DRD fibroblast viability loss – cell-based, non-viral oncogenic, luminescence, dose response (AID 1934); format: functional; conditions: Homo sapiens
[6] = viability loss in HeLa cells – cytotoxicity control for MgcRacGAP inhibitor project, dose response (AID 624300); format: functional
Phospholipase A2 = Phospholipase A2 (Homo sapiens, UniProt P04054); format: functional;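 note: confirmatory dose-response counterscreen on phospholipase A2, testing hits that came from an ultra-high-throughput screen for ATG4B inhibitors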
Phospholipase A2, sequence (P04054 whole entry): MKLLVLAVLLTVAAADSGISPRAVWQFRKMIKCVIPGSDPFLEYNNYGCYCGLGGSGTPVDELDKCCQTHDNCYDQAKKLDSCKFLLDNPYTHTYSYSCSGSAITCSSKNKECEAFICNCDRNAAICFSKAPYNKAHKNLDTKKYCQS

[7] = molecular target: Heat shock protein HSP 90-alpha (Homo sapiens, UniProt P07900); format: functional, organism-based
Cysteine protease ATG4B = Cysteine protease ATG4B (Homo sapiens, UniProt Q9Y4P1); format: functional;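 note: Fluorescence-based dose-response confirmation assay measuring inhibition of ATG4B activity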
Cysteine protease ATG4B, sequence (Q9Y4P1 whole entry): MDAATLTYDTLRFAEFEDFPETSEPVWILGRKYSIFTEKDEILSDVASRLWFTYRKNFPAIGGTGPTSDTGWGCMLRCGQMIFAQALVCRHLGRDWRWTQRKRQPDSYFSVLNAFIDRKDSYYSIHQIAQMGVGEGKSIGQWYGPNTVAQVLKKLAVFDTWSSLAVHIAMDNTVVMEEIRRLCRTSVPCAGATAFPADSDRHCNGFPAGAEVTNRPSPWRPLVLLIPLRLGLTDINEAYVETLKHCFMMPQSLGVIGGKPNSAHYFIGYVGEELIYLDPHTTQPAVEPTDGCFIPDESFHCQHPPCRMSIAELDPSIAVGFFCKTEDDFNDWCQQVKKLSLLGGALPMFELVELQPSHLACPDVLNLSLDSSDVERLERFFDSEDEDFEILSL

[8] = molecular target: 72 kDa type IV collagenase (Homo sapiens, UniProt P08253); assay: Dose Response validation of uHTS RPN11 inhibitor hits using a MMP-2 Fluorescence assay.; format: functional
72 kDa type IV collagenase, sequence (P08253 whole entry): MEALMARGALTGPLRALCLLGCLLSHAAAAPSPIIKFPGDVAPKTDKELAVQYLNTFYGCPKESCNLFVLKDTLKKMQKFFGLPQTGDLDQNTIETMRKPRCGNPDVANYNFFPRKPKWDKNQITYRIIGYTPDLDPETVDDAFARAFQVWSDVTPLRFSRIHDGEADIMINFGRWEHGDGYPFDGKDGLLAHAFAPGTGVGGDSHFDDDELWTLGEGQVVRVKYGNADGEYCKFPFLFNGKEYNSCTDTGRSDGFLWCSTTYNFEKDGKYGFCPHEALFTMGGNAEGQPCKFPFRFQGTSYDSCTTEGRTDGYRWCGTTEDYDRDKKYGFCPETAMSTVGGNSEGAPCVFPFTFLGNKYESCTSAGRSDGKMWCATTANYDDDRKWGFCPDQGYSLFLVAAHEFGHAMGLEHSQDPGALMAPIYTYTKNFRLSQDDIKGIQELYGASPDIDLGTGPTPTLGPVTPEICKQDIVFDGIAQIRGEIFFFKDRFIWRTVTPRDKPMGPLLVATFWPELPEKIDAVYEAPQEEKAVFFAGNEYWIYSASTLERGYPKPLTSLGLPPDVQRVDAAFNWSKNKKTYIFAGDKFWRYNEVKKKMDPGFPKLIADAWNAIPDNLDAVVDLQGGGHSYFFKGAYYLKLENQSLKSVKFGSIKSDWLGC

Prothrombin = Prothrombin (Bos taurus, UniProt P00735); assay: thrombin protease inhibitors – biochemical, fluorescence polarization, uHTS hits, dose response (AID 602369); format: functional
[9] = molecular target: 26S proteasome non-ATPase regulatory subunit 14 (Homo sapiens, UniProt O00487); assay: inhibition of proteasome subunit RPN11 – biochemical, fluorescence polarization, uHTS hits, confirmation (AID 602368); format: functional
26S proteasome non-ATPase regulatory subunit 14, sequence (O00487 whole entry): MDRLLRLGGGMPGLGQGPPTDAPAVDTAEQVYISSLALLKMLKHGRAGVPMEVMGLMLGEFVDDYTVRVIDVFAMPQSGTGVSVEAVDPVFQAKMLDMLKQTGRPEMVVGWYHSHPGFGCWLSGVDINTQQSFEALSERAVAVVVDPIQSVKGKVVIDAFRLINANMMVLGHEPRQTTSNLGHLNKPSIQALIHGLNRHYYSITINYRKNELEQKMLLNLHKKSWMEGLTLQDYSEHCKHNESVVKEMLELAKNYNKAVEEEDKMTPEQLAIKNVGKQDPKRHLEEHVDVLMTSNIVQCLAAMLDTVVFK

[10] = molecular target: T1, Rac GTPase-activating protein 1 (Homo sapiens, UniProt Q9H0H5); assay: blockers of MgcRacGAP-driven Rac1 GTP hydrolysis – biochemical, ADP Hunter fluorescence, primary and confirmatory, confirmation (AID 624330); format: functional
T1 sequence (Q9H0H5 whole entry): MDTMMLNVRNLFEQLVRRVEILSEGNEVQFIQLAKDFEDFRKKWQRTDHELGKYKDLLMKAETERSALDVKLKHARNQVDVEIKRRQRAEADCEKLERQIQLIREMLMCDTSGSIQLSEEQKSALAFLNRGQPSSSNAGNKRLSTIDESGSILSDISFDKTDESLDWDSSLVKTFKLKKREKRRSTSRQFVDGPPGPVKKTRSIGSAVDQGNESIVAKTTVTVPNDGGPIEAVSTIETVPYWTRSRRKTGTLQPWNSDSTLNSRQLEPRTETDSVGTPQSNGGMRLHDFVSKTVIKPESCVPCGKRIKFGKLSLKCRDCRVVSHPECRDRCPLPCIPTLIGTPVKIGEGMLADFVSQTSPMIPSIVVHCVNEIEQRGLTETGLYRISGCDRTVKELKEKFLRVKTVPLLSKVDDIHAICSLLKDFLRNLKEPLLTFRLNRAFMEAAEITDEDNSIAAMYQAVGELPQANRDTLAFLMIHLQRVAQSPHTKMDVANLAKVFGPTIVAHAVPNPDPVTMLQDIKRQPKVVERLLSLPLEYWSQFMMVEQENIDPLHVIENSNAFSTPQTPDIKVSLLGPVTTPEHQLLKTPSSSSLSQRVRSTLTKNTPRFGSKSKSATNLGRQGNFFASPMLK

[11] = molecular target: T2, DNA repair protein RAD52 homolog (Homo sapiens, UniProt P43351); format: functional, biochemical
T2 sequence (P43351 whole entry): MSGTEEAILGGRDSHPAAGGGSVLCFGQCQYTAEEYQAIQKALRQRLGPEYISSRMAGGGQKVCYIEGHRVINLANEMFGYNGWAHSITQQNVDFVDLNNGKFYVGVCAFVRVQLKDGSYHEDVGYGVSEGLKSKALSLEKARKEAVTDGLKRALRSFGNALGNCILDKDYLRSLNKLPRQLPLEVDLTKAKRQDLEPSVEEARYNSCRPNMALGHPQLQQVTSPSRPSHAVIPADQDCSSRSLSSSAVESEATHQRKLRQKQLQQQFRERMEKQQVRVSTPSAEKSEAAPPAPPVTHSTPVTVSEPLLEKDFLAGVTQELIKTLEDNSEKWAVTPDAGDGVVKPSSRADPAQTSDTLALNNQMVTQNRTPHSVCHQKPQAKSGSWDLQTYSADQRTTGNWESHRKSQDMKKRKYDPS

[12] = molecular target: T3, Sentrin-specific protease 6 (Homo sapiens, UniProt Q9GZR1); assay: SAR Analysis of small molecule inhibitors of Sentrin-specific protease 6 (SENP6) using a Luminescent assay. [Related pubchem assays (depositor defined):AID2582, AID2599]; format: functional
T3 sequence (Q9GZR1 whole entry): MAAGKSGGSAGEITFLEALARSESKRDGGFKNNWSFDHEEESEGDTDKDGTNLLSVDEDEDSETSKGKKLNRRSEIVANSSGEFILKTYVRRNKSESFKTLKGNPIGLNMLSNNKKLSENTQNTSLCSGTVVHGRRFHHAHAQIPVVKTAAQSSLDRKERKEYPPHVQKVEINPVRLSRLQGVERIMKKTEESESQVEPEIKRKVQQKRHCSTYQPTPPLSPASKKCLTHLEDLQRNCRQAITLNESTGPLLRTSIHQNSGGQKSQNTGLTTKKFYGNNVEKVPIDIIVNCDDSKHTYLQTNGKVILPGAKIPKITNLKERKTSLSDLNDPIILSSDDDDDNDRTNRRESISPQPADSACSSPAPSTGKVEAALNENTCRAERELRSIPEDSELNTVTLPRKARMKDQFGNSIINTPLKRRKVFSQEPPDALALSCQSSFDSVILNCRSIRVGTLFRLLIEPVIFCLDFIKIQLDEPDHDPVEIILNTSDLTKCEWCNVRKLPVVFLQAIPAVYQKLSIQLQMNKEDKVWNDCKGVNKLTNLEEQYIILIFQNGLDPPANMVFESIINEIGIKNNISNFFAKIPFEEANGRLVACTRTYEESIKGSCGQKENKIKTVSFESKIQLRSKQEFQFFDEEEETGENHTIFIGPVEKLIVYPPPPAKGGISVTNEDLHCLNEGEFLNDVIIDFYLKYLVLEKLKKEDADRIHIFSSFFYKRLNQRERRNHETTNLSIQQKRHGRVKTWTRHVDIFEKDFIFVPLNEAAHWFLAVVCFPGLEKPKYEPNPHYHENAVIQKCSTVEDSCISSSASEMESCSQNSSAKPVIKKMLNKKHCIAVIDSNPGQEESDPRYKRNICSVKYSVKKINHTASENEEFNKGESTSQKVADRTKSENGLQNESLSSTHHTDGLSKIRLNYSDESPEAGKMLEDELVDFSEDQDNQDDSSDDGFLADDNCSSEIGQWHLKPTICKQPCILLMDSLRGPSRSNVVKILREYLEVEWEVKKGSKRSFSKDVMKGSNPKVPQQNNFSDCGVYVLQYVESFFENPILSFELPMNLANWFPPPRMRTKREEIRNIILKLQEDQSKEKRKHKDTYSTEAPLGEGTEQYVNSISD

[13] = molecular target: T4, Sentrin-specific protease 8 (Homo sapiens, UniProt Q96LD8); assay: inhibition of human SENP8 cleavage activity – biochemical, luminescence, SAR follow-up (AID 504501); format: functional
T4 sequence (Q96LD8 whole entry): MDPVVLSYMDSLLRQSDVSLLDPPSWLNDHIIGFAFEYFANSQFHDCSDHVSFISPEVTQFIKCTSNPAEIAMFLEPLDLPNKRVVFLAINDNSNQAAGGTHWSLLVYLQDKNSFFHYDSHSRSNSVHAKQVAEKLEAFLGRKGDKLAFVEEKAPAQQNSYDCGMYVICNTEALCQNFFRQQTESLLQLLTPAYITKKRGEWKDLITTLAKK

[14] = molecular target: T5, Sentrin-specific protease 7 (Homo sapiens, UniProt Q9BQF6); assay: inhibition of human SENP7 cleavage activity – biochemical, luminescence, SAR follow-up (AID 504497); format: functional
T5 sequence (Q9BQF6 whole entry): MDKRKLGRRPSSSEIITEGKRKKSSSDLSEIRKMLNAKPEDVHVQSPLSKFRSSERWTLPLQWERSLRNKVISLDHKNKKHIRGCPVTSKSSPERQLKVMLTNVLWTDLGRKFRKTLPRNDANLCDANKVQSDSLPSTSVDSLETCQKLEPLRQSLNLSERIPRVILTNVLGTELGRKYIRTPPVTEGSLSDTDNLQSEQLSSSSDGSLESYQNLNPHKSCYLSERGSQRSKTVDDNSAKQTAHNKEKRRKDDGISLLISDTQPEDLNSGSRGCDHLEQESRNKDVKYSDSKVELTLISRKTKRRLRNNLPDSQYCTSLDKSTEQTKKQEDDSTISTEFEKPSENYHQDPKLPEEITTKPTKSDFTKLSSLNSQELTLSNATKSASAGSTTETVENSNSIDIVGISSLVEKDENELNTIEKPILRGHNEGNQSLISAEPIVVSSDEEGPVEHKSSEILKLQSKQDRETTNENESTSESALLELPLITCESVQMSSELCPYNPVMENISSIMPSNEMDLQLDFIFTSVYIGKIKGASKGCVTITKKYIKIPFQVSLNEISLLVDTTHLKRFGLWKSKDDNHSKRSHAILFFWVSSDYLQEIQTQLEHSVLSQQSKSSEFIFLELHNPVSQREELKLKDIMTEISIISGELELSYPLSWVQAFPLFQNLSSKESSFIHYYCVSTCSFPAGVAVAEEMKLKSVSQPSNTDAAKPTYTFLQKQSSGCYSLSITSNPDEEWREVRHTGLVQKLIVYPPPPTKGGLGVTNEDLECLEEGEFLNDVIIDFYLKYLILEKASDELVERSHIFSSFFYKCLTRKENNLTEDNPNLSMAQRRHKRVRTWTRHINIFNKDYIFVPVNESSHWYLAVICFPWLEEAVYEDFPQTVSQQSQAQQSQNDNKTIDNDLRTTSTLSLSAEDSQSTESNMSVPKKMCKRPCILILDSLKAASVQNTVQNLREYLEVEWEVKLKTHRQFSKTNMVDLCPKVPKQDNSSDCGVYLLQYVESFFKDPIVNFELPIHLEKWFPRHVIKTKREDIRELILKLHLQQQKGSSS

Caspase-3 = molecular target: T6, Caspase-3 (Homo sapiens, UniProt P42574); assay: SAR Analysis of small molecule inhibitors of Sentrin-specific proteases (SENPs) using a Caspase-3 Selectivity assay. [Related pubchem assays (depositor defined):AID2540, AID2599, AID434973, AID489001]; format: functional
T6 sequence (P42574 whole entry): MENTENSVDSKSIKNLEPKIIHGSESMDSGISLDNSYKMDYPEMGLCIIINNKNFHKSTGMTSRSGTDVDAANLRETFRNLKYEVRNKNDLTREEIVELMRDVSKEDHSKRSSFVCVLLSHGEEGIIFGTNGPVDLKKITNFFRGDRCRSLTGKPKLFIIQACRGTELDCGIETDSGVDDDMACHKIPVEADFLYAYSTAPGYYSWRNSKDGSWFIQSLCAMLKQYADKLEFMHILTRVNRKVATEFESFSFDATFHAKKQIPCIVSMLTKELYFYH

Row | IC50 [12] | IC50 [14] | IC50 (Caspase-3) | SMILES | EC50 (BJ [1]) | EC50 (BJ [2]) | EC50 (BJ [3]) | EC50 (BJ [4]) | EC50 [5] | IC50 [13] | other results
1 | – | – | – | O=C1SC(Cc2ccccc2)C(=O)N1c1ccccc1 (configuration not stated) | 5.85 µM (active) | > 150 µM (not active) | > 150 µM (not active) | > 66.7 µM (inactive) | 20.8 µM (active) | – | –
2 | – | – | – | COc1cccc(/C=C2\SC(=S)N(CCCC(=O)Nc3cc(C)on3)C2=O)c1 | 3.22 µM (inconclusive) | > 150 µM (not active) | > 150 µM (not active) | > 133 µM (inactive) | > 150 µM (not active) | – | –
3 | – | – | – | CCCCCCCCCCCCCCCC(O)C[N+](C)(C)CCO (configuration not stated) | – | – | – | – | – | – | CC50 [6]: 33.4 µM (active); IC50 (Phospholipase A2): 6.53 µM (active); AC50 [7]: 5 µM (active); IC50 (Cysteine protease ATG4B): 7.58 µM (active); IC50 [8]: 81.8 µM (active); IC50 (Prothrombin): 45.1 µM (active); IC50 [9]: 22.1 µM (active); IC50 [10]: 86 µM (active); AC50 [11]: < 30.4 µM (active)
4 | 84.4 µM (active) | 10.9 µM (active) | 18.7 µM (active) | CCCC(=O)Nc1ccc(-c2nc3cc(Cl)ccc3s2)cc1 | – | – | – | – | – | 82.4 µM (active) | –
5 | > 99 µM (inactive) | 96.9 µM (active) | > 99 µM (inactive) | O=C(O)c1ccc(N/N=C/c2cn(Cc3ccccc3)c3ccccc23)cc1 | – | – | – | – | – | > 99 µM (inactive) | –
